Measurements as given in patent US12616203B2, “Use of 3-isoxazolidinones compounds as selective herbicides” (FMC Corporation, priority 2014, dated 2026).

Tests used:
weeds [1] = assay: Ex18 PRE greenhouse; assay type: in vivo; settings: weed and rate in the words
Source text: (§1) Additional treatments included application of metazachlor (Butisan®, 43.1%) at 750 g ai/ha, napropamide (Devrinol DF®, 50%) at 1260 g ai/ha, and dimethachlor (Teridox®, 48%) at 1000 g ai/ha. […] Treatments were applied just after the seeding of annual bluegrass, cheat, wild oat, quackgrass, field violet, blackgrass, littleseed canarygrass, silky windgrass, yellow foxtail, and goosegrass. […] Flats were watered and fertilized routinely after treatment application. Each treatment was replicated three times.

Wild buckwheat = assay: Ex11 PRE 2,4-DC + clomazone, % control 28 DAT, Colby; assay type: in vivo, Polygonum convolvulus
Source text: The crop tested was Oilseed rape.
Additional treatments included applications of metazachlor (Butisan®, 43.1%) at 750 g ai/ha, napropamide (Devrinol DF®, 50%) at 1260 g, and dimethachlor (Teridox®, 48%) at 1000 g. […] Treatments were applied just after the planting of tall morningglory, wild mustard, common lambsquarters, Italian ryegrass, wild buckwheat, redroot pigweed, common chickweed, corn poppy, and oilseed rape.
Flats were watered and fertilized routinely after treatment application. Each treatment was replicated three times.

Cheat = assay: Ex18 PRE 2,4-DC + clomazone, % control 28 DAT, Colby; assay type: in vivo, Bromus secalinus
Source text: as §1

[2] = system: weeds; Sugarcane (var. CTC 20); assay: Ex17 PRE greenhouse; assay type: in vivo; settings: weed and rate in the words
Protocol: (§2) In this example a study was conducted to determine weed efficacy and sugarcane injury when 2,4 DC or isoxaflutole are applied either alone or tank-mix as preemergence against the weeds: Ivyleaf morningglory (Ipomoea hederacea, IPOHE), hairy beggartickss (Bidens pilosa, BIDPI), yellow nutsedge (Cyperus esculentus, CYPES), large crabgrass (Digitaria sanguinalis, DIGSA), and redroot pigweed (Amaranthus retroflexus, AMARE). The crop tested in this study was Sugarcane (var. CTC 20).
(§3) To determine weed efficacy and sugarcane selectivity, 2,4 DC (SC 36%) and isoxaflutole (Balance Flexx®, 20%) were applied PRE either alone or as tank-mix partners at rates mentioned below. 2,4 DC was applied at 500, 750, and 1000 g ai/ha while isoxaflutole was applied at 80, 100, and 120 g ai/ha. […] Treatments were applied PRE to sugarcane (var. CTC 20), ivyleaf morningglory, hairy beggarticks, yellow nutsedge, large crabgrass, and redroot pigweed. Weed species were planted in fiber flats (6″×10″) containing Pennington soil. Soil was watered before application and watered lightly after application. Flats were watered and fertilized routinely after treatment application.

weeds [3] = assay: Ex13 PRE greenhouse; assay type: in vivo; settings: 28 DAT, weed and rate in the words
Source text: (§4) Pyroxasulfone (KIH-485, 85%) at 74.3 g ai/ha, pendimethalin (Prowl 3.3EC, 37.4%) at 1200 g ai/ha, or a premix of chlorsulfuron plus metsulfuron-methyl (Report Extra, 75%) at 15.8 g ai/ha were applied as commercial standards. […] Treatments were replicated 3 times and flats were watered after planting before the treatment and lightly watered after treatment application. Thereafter flats were watered and fertilized routinely.

[4] = system: weeds; Wheat, barley, and oil seed rape (OSR); assay: Ex19 PRE greenhouse; assay type: in vivo; settings: rate in the words
Source text: In this study, the crops tested included Wheat, barley, and oil seed rape (OSR).
To determine weed efficacy and wheat, barley or OSR selectivity, 2,4 DC (CS 36.7%) and Diflufenican (CS 19.5%) were applied preemergence either alone or as tank-mix partners at the following rates. 2,4 DC was applied at 125, 170, 210 and 250 g ai/ha while Diflufenican was applied at 50, 75, and 100 g ai/ha. Pyroxasulfone (KIH-485, 85%) at 74.3 g ai/ha, pendimethalin (Prowl 3.3EC, 37.4%) at 1200 g ai/ha, or a premix of chlorsulfuron plus metsulfuron-methyl (Report Extra, 75%) at 15.8 g ai/ha were applied as commercial standards.
Herbicides included as standards for comparison were pyroxasulfone, pendimethalin, and a pre mix of chlorsulfuron plus metsulfuron methyl, all applied at labeled rates as indicated above. Treatments were replicated 3 times. […] Thereafter flats were watered and fertilized routinely.

weeds [5] = assay: Ex10 PRE greenhouse; assay type: in vivo; settings: 28 DAT, weed and rate in the words
Source text: Treatments 1-12 of 2,4-DC and aclonifen tank-mix combinations follow same rates listed above. […] Sulfentrazone (Spartan 4F® 39.6%) at 280 g ai/ha, pendimethalin (Prowl 3.3®EC, 37.4%) at 784 g ai/ha, or S-metolachlor (Dual II Magnum® 82.4%) at 1084 g ai/ha were applied as commercial standards. Treatments were replicated 3 times and flats were watered after planting but before the treatment and lightly watered after treatment application. Thereafter flats were watered and fertilized routinely. […] Shepherd's-purse was rated at 21 and 28 DAT only, due to delayed emergence.

weeds; Wheat and Barley = assay: Ex14 POST greenhouse; assay type: in vivo; settings: 28 DAT, rate in the words
Source text: (§5) The study further assessed post crop safety on Wheat and Barley.
(§6) Nonionic surfactant at 0.5% (v/v) was included with commercial standards application. No adjuvant was applied with any other treatments. All plant species were direct seeded into 3″ plastic pots using metro-mix as growth media. At treatment application common lambsquarters was 1.75″, common chickweed was 2″, wild mustard was 2.25″, wild oat was 5.5″, wild buckwheat was 2-5″, Italian ryegrass was 2-3″, wheat was 5.5″, and barley was 4.5″ in height. Plants were watered well before application and not watered 24 h after application. Plants were watered and fertilized routinely after treatment application. Each treatment was replicated four times.

common chickweed = assay: Ex14 POST 2,4-DC + bromoxynil, % control 28 DAT, Colby; assay type: in vivo, Stellaria media
Source text: as §5, §6

Ivyleaf morningglory = assay: Ex17 PRE 2,4 DC + isoxaflutole, % control 28 DAT, Colby; assay type: in vivo, Ipomoea hederacea
Protocol: as §2
as §3, with “Weed species were planted in fiber flats (6″×10″) containing Pennington soil.” left out

weeds; Sugarcane (CTC20) = assay: Ex23 PRE greenhouse; settings: 28 DAT, 85 g ai/ha
Protocol: (Ipomoea spp). The tested crop in this study was Sugarcane (CTC20).
Sugarcane was direct seeded into 6″ plastic pots using 3-4″ sugarcane setts, oriented bud up, with bud leaf shield removed. 2,4 DC and sulfentrazone were applied alone or combined as tank-mix at each rate mentioned below. […] Treatments were replicated 3 times. […] Thereafter flats were watered and fertilized routinely. […] Visual percent sugarcane injury was recorded at 21 and 28 DAT, using a scale of 0 (no injury, observed as bleaching, stunting or necrosis) to 100 (complete plant death).

Common cocklebur = assay: Ex37 PRE 2,4-DC + atrazine, % control 28 DAT, Colby; assay type: in vivo, Xanthium strumarium
Source text: (§7) S-metolachlor (DUAL II MAGNUM®, 82.4%) at 525 g ai/h plus atrazine at 560 g ai/h was included as a standard for comparison. […] Thereafter flats were watered and fertilized routinely.

Velvetleaf = assay: as above; assay type: in vivo, Abutilon theophrasti; settings: PRE
Source text: as §7

Blackgrass = assay: Ex13 PRE 2,4-DC + diflufenican, % control 28 DAT, Colby; assay type: in vivo, Alopecurus myosuroides
Source text: as §4

Common lambsquarters = assay: as above; assay type: in vivo, Chenopodium album
Source text: as §4

Wild mustard = assay: as above; assay type: in vivo, Sinapis arvensis
Source text: as §4

weeds; Wheat and canola = assay: Ex29 PRE greenhouse; assay type: in vivo; settings: 28 DAT
Source text: The tested weeds include Italian ryegrass (Lolium perenne. multiflorum, LOLMU), wild mustard (Sinapis arvensis, SINAR), annual bluegrass (Poa annua, POAAN), wild oat (Avena fatua, AVEFA), blackgrass (Alopecurus myosuroides, ALOMY), common lambsquarters (Chenopodium album, CHEAL), littleseed canarygrass (Phalaris minor, PHAMI), common chickweed (Stellaria media, STEME), corn poppy (Papaver rhoeas, PAPRH), redroot pigweed (Amaranthus retroflexus, AMARE), silky windgrass (Apera spica-venti, APSEV), wild buckwheat (Polygonum convolvulus, POLCO). The crops teased were Wheat and canola.
Treatments were applied before the emergence of Italian ryegrass, wild oat, wild buckwheat, blackgrass, littleseed canarygrass, common chickweed, common lambsquarters, corn poppy, silky windgrass, redroot pigweed, wild mustard, annual bluegrass, canola, and wheat. […] Flats were watered and fertilized routinely after treatment application.

CC1(C)CON(Cc2ccccc2Cl)C1=O [Clomazone, clomazone, reference compound]
weed control in words (weeds [1]): controlled goosegrass at all rates and cheat at 120 g | Y (Wild buckwheat; clomazone alone 60 g ai/ha): 70% | Y (Wild buckwheat; clomazone alone 90 g ai/ha): 80% | Y (Wild buckwheat; clomazone alone 120 g ai/ha): 79% | Y (Cheat; clomazone alone 60 g ai/ha): 40% | Y (Cheat; clomazone alone 90 g ai/ha): 75% | Y (Cheat; clomazone alone 120 g ai/ha): 97% | weed control in words [2]: at 1120 g controlled hairy beggarticks, large crabgrass, and redroot pigweed

CCC(CC)Nc1c([N+](=O)[O-])cc(C)c(C)c1[N+](=O)[O-] [Pendimethalin, pendimethalin]
weed control in words (weeds [3]): at 1200 g gave control of 6 out of 10 weeds | weed control / crop safety in words [4]: controlled corn poppy and field violet and was safe on barley | weed control in words (weeds [5]): at 784 g gave control of 5 out of 10 weeds

N#Cc1cc(Br)c(O)c(Br)c1 [Bromoxynil, bromoxynil, reference compound]
weed control / crop safety in words (weeds; Wheat and Barley): alone controlled wild buckwheat, wild mustard, and common lambsquarters at all rates and was safe on both crops at all rates | Y (common chickweed; bromoxynil alone 140 g ai/ha): 35% | Y (common chickweed; bromoxynil alone 210 g ai/ha): 65% | Y (common chickweed; bromoxynil alone 280 g ai/ha): 38%

CS(=O)(=O)c1cc(C(F)(F)F)ccc1C(=O)c1cnoc1C1CC1 [Isoxaflutole, isoxaflutole, reference compound]
Y (Ivyleaf morningglory; isoxaflutole alone 80 g ai/ha): 69% | Y (Ivyleaf morningglory; isoxaflutole alone 100 g ai/ha): 73% | Y (Ivyleaf morningglory; isoxaflutole alone 120 g ai/ha): 81% | sugarcane injury (weeds; Sugarcane (CTC20)): 12% | weed control in words [2]: alone at 80 g or higher rates controlled hairy beggarticks, large crabgrass, and redroot pigweed

CCNc1nc(Cl)nc(NC(C)C)n1 [Atrazine]
Y (Common cocklebur; Atrazine alone 140 g ai/ha): 57% | Y (Common cocklebur; Atrazine alone 280 g ai/ha): 92% | Y (Common cocklebur; Atrazine alone 560 g ai/ha): 97% | Y (% control, atrazine alone) (Velvetleaf; atrazine 140 g ai/ha): 53% | Y (% control, atrazine alone) (Velvetleaf; atrazine 280 g ai/ha): 63% | Y (% control, atrazine alone) (Velvetleaf; atrazine 560 g ai/ha): 96%

Nc1c([N+](=O)[O-])ccc(Oc2ccccc2)c1Cl [Aclonifen, aclonifen]
weed control in words (weeds [5]): alone at all three rates controlled common lambsquarters, quackgrass, redroot pigweed, littleseed canarygrass, annual bluegrass, blackgrass, and shepherd's purse

O=C(Nc1ccc(F)cc1F)c1cccnc1Oc1cccc(C(F)(F)F)c1 [Diflufenican, diflufenican, reference compound]
Y (Blackgrass; diflufenican alone 50 g ai/ha): 33% | Y (Blackgrass; diflufenican alone 75 g ai/ha): 17% | Y (Blackgrass; diflufenican alone 100 g ai/ha): 27% | weed control in words (weeds [3]): controlled common lambsquarters at 100 g only | Y (Common lambsquarters; diflufenican alone 50 g ai/ha): 65% | Y (Common lambsquarters; diflufenican alone 75 g ai/ha): 73% | Y (Common lambsquarters; diflufenican alone 100 g ai/ha): 85% | Y (Wild mustard; diflufenican alone 50 g ai/ha): 42% | Y (Wild mustard; diflufenican alone 75 g ai/ha): 89% | Y (Wild mustard; diflufenican alone 100 g ai/ha): 100%

COCCN(C(=O)CCl)c1c(C)cccc1C [Dimethachlor, dimethachlor]
weed control in words (weeds [1]): controlled annual bluegrass, quackgrass, littleseed canarygrass, silky windgrass, yellow foxtail, and goosegrass | injury to canola (weeds; Wheat and canola; at 100 g): 18% | weed control / crop safety in words (weeds; Wheat and canola; weed, crop, rate in the words): alone provided control of lambsquarters at 1000 g ai/ha
